Tests used:
Gst-Rpn10 [1] = molecular target: T1, Gst-Rpn10 (Saccharomyces cerevisiae, UniProt P38886); experiment: Binding of UbSic1 to Gst-Rpn10 on glutathione sepharose beads
T1 construct: made in house
T1 sequence (P38886 1-268): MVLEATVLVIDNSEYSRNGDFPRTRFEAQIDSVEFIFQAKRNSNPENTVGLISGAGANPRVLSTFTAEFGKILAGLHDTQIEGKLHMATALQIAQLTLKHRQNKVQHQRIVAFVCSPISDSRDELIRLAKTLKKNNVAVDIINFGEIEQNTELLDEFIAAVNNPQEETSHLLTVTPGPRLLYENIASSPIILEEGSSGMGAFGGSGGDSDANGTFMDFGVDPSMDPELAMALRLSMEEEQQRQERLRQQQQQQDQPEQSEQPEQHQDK
Method: (§1) FIG. 2. […] (A) Degradation of UbSic1. Purified 26S proteasomes were preincubated in the presence or absence of test compounds. UbSic1 was then added, and degradation assayed as described (6). Py mock refers to the pyridine solvent in which C23 was dissolved which was marginally inhibitory, unlike the 50% DMSO vehicle used for other test compounds. (B) Deubiquitination of UbSic1. […] UbSic1 was then added, and deubiquitination was assayed as described (6). (C) Titration curve with varying concentrations of C92 to determine half-maximal inhibition of deubiquitination. (D) C92 inhibits binding of UbSic1 to 26S proteasomes. Purified 26S proteasomes immobilized on anti-Flag beads were incubated with UbSic1 in the presence or absence of C92 as described (6). Following binding, beads were washed and analyzed by immunoblotting with anti-Sic1 polyclonal serum. (E) Binding of UbSic1 to the polyUb binding proteins Rpn10 and Rad23 is inhibited by C92. Recombinant Gst-Rpn10 and Gst-Rad23 (1 μg each) were immobilized on glutathione sepharose beads and then incubated with UbSic1 in the presence or absence of C92. Following binding, beads were washed and analyzed by immunoblotting. […]
FIG. 5. […] Assays were performed and evaluated as summarized in the legend to FIG. 2B. […]
(§2) Recombinant Gst-Rpn10 and Gst-Rad23 were immobilized on glutathione sepharose beads. […] Aliquots were analyzed by immunoblotting.

26S proteasomes = tested on: T2, 26S proteasomes; experiment: Binding of UbSic1 to immobilized 26S proteasomes; parameters: species or system S. cerevisiae; conditions: 5 μM C92
T2 construct: IC50, deubiquitination of UbSic1; other: titration, epoxomicin-treated proteasomes; other: 5 μM C92
Method: as §1, with “Recombinant Gst-Rpn10 and Gst-Rad23 (1 μg each) were immobilized on glutathione sepharose beads and then incubated with UbSic1 in the presence or absence of C92.” left out
26S proteasomes were immunoprecipitated with anti-Flag resin from tagged and untagged control strains and incubated with 1 mM phenanthroline, 2.5 uM Ub-aldehyde, and 100 μM MG132 at 4° C. for 45 min. […] Washed beads were resuspended in 2×SDS sample buffer and aliquots analyzed by immunoblotting with anti-Sic1.

Gst-Rad23 [2] = molecular target: T3, Gst-Rad23 (Saccharomyces cerevisiae, UniProt P32628); experiment: Native gel mobility shift of receptor protein; format: binding
T3 construct: made in house
T3 sequence (P32628 1-398): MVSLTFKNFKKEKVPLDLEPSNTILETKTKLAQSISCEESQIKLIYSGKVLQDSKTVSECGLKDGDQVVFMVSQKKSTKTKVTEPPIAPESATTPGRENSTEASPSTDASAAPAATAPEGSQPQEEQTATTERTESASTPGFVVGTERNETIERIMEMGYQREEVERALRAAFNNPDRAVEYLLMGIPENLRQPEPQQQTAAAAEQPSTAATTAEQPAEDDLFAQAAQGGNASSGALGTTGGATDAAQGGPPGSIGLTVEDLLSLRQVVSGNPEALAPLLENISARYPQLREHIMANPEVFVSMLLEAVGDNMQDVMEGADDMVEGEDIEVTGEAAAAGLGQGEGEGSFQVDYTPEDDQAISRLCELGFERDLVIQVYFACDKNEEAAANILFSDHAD
Method: as §1, with “immunoblotting. (F) C92 interacts with multiUb chains. Equivalent amounts (5 μg) of purified Gst, Gst-fusion protein or multiUb chains were incubated with C92 or C1 before being loaded on a 5% native polyacryamide gel.” for “immunoblotting.”

Gst-Rpn10 [3] = molecular target: T1, Gst-Rpn10; experiment: Native gel mobility shift of receptor protein; format: binding
Method: as §1, with “immunoblotting. (F) C92 interacts with multiUb chains. Equivalent amounts (5 μg) of purified Gst, Gst-fusion protein or multiUb chains were incubated with C92 or C1 before being loaded on a 5% native polyacryamide gel.” for “immunoblotting.”

Gst-Rad23 [4] = molecular target: T3, Gst-Rad23; experiment: Binding of UbSic1 to Gst-Rad23 on glutathione sepharose beads
Method: as §1, with “immunoblotting. (F) C92 interacts with multiUb chains.” for “immunoblotting.”
as §2

| Compound | inhibition of binding of UbSic1 to Rpn10 (Gst-Rpn10 [1]) | inhibition of binding of UbSic1 to 26S proteasomes (26S proteasomes) | native gel mobility of Gst-Rad23 (Gst-Rad23 [2]) | native gel mobility of Gst-Rpn10 (Gst-Rpn10 [3]) | inhibition of binding of UbSic1 to Rad23 (Gst-Rad23 [4]) |
| --- | --- | --- | --- | --- | --- |
| O=C(Nc1ccc(/C=C/c2ccc(NC(=O)c3cc(S(=O)(=O)O)c4cccnc4c3O)cc2S(=O)(=O)O)c(S(=O)(=O)O)c1)c1cc(S(=O)(=O)O)c2cccnc2c1O [Compound 92] | abolished binding | strongly inhibited binding | not Gst-Rpn10 or Gst-Rad23, was altered | not Gst-Rpn10 or Gst-Rad23, was altered | abolished binding |
| O=S(=O)(O)c1ccc2cc3c(cc2c1)NN(c1ccc(/C=C/c2ccc(N4Nc5cc6ccc(S(=O)(=O)O)cc6cc5N4)cc2S(=O)(=O)O)c(S(=O)(=O)O)c1)N3 [Compound 59] | abrogated binding |  |  |  |  |
